For the assay, the target named is ROCK2 (Homo sapiens (Human), UniProt O75116). The assay can be described thus: ROCK2 kinase inhibition assay (LABCHIP peptide phosphorylation). Format: biochemical. To be noted: 5 μM ATP, 1.5 μM peptide substrate. Here is the method: The effectiveness of compounds of the present invention as ROCK inhibitors can be determined in a 30 μL, assay containing 20 mM HEPES, pH 7.5, 20 mM MgCl2, 0.015% Brij-35, 4 mM DTT, 5 μM ATP and 1.5 μM peptide substrate (FITC-AHA-AKRRRLSSLRA-OH). Compounds were dissolved in DMSO so that the final concentration of DMSO was <2%, and the reaction was initiated with Rho kinase variants. After incubation, the reaction was terminated by the addition of EDTA and the phosphorylated and non-phosphorylated peptides separated using a LABCHIP® 3000 Reader (Caliper Life Sciences). […] Compounds were tested in dose-response format, and the inhibition of kinase activity was calculated at each concentration of compound. The inhibition data were fit using a curve-fitting program to determine the IC50; i.e., the concentration of compound required to inhibit 50% of kinase activity.
ROCK2, sequence (O75116 whole entry, species assumed): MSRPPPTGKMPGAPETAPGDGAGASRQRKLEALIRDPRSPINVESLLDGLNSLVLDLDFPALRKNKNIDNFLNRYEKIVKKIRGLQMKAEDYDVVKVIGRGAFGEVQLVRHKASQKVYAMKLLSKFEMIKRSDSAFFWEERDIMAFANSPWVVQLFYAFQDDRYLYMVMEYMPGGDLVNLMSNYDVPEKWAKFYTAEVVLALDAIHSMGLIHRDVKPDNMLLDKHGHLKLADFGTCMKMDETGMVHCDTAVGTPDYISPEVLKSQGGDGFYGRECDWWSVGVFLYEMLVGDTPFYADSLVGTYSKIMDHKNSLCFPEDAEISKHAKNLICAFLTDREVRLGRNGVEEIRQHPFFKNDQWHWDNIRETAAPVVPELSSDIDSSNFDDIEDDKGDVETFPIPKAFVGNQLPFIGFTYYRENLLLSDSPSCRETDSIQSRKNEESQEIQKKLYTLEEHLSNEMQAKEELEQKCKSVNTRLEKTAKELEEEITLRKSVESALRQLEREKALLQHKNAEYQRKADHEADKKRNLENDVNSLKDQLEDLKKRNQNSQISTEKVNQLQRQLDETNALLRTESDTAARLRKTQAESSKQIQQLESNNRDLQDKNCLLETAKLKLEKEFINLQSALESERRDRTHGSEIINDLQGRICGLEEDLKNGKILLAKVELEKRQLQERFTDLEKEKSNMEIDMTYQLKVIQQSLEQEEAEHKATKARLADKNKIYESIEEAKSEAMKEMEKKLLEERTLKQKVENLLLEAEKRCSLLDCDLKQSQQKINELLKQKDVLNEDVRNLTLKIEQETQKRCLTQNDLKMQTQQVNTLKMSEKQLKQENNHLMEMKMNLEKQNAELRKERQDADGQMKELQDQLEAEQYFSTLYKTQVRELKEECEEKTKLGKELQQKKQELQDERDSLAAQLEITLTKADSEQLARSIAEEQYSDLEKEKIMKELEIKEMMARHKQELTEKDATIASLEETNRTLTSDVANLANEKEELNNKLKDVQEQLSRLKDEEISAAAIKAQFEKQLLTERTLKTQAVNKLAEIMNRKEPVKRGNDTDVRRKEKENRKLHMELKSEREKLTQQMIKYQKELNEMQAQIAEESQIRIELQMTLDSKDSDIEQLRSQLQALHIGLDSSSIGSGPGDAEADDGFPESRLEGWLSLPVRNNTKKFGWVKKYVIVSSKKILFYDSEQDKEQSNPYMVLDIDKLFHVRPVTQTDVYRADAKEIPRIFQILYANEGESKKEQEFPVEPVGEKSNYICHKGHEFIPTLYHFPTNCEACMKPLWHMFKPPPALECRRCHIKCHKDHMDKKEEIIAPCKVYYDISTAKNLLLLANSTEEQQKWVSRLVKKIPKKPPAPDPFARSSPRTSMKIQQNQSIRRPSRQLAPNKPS
Representative Examples were tested in the ROCK2 assay described above and found having ROCK2 inhibitory activity. The ranges of the ROCK2 IC50 values are as follows: ROCK2 IC50: ++++(<10 nM)+++(10-100 nM)++(100-500 nM)+(500-2000 nM)

This passage reports IC50 results from patent publication US10654860B2, “Tricyclic rho kinase inhibitors” (BRISTOL-MYERS SQUIBB COMPANY, priority 2016, dated 2020).

A value given as a limit tells only on which side of the number the result lay.

Compound `COc1cccc(CNC(=O)Nc2ccc3c(n2)OCc2n[nH]cc2-3)c1` [Example 5, 1-(2,4-dihydropyrazolo[4′,3′:4,5]pyrano[2,3-b]pyridin-7-yl)-3-(3-methoxybenzyl)urea] registered an IC50 of 10 to 100 nM.

The compound `COc1cccc(CN2CCN(c3ccc4c(n3)OCc3n[nH]cc3-4)C2=O)c1F` [Example 27, 1-(2,4-dihydropyrazolo[4′,3′:4,5]pyrano[2,3-b]pyridin-7-yl)-3-(2-fluoro-3-methoxybenzyl)imidazolidin-2-one] had an IC50 of 100 to 500 nM.

`COc1cccc(CN2CCN(c3ccc4c(c3)CCc3n[nH]c(C)c3-4)C2=O)c1` [Example 19, 1-(3-methoxybenzyl)-3-(1-methyl-4,5-dihydro-2H-benzo[e]indazol-7-yl)imidazolidin-2-one]: the IC50 was 10 to 100 nM.

The compound `O=C1N(Cc2ccc(F)c(F)c2)CCN1c1ccc2c(n1)OCc1n[nH]cc1-2` [Example 29, 1-(3,4-difluorobenzyl)-3-(2,4-dihydropyrazolo[4′,3′:4,5]pyrano[2,3-b]pyridin-7-yl)imidazolidin-2-one] returned a 50% inhibitory concentration (IC50) of 100 to 500 nM.

For the compound `O=C1N(c2ccc3c(c2)CCc2n[nH]cc2-3)CCC12Cc1ccccc1N2` (racemic) [Example 1, (rac)-1′-(4,5-dihydro-2H-benzo[e]indazol-7-yl)spiro[indoline-2,3′-pyrrolidin]-2′-one], the half-maximal inhibitory concentration (IC50) was under 10 nM.

Compound `COc1cccc(CN2CCN(c3ccc4c(c3)CCc3n[nH]cc3-4)C2=O)c1` [Example 2, 1-(4,5-dihydro-2H-benzo[e]indazol-7-yl)-3-(3-methoxybenzyl)imidazolidin-2-one] registered an IC50 of under 10 nM.

Turning to `O=C1N(Cc2cccc(F)c2)CCN1c1ccc2c(n1)OCc1n[nH]cc1-2` [Example 25, 1-(2,4-dihydropyrazolo[4′,3′:4,5]pyrano[2,3-b]pyridin-7-yl)-3-(3-fluorobenzyl)imidazolidin-2-one], the 50% inhibitory concentration (IC50) was in the range of 100 to 500 nM.

In turn, `Cc1c(F)cccc1NC1CCN(c2ccc3c(n2)OCc2n[nH]cc2-3)C1=O` (stereo not drawn) [Example 24, 1-(2,4-dihydropyrazolo[4′,3′:4,5]pyrano[2,3-b]pyridin-7-yl)-3-((3-fluoro-2-methylphenyl)amino)pyrrolidin-2-one] returned an IC50 of 100 to 500 nM.

`O=C1C(Nc2ccc3ncsc3c2)CCN1c1ccc2c(n1)OCc1n[nH]cc1-2` (racemic) [Example 32, 3-(benzo[d]thiazol-6-ylamino)-1-(2,4-dihydropyrazolo[4′,3′:4,5]pyrano[2,3-b]pyridin-7-yl)pyrrolidin-2-one] registered a 50% inhibitory concentration (IC50) of 500 to 2000 nM.

As for `N#Cc1cccc(NC2CCN(c3ccc4c(n3)OCc3n[nH]cc3-4)C2=O)c1` (racemic) [Example 34, 3-((1-(2,4-dihydropyrazolo[4′,3′:4,5]pyrano[2,3-b]pyridin-7-yl)-2-oxopyrrolidin-3-yl)amino)benzonitrile], the half-maximal inhibitory concentration (IC50) lay in the range of 500 to 2000 nM.

As to `COc1cccc(NC2CCN(c3ccc4c(c3)OCc3n[nH]cc3-4)C2=O)c1` (single isomer, unassigned) [Example 10, 1-(2,4-dihydrochromeno[3,4-c]pyrazol-7-yl)-3-((3-methoxyphenyl)amino)pyrrolidin-2-one], the IC50 was under 10 nM.

Regarding `O=C1C(Nc2cccc(-c3cnco3)c2)CCN1c1ccc2c(n1)OCc1n[nH]cc1-2` (racemic) [Example 35, 1-(2,4-dihydropyrazolo[4′,3′:4,5]pyrano[2,3-b]pyridin-7-yl)-3-((3-(oxazol-5-yl)phenyl)amino)pyrrolidin-2-one], the IC50 lay in the range of 500 to 2000 nM.

As to `O=C1N(Cc2cc(F)ccc2F)CCN1c1ccc2c(n1)OCc1n[nH]cc1-2` [Example 30, 1-(2,5-difluorobenzyl)-3-(2,4-dihydropyrazolo[4′,3′:4,5]pyrano[2,3-b]pyridin-7-yl)imidazolidin-2-one], the IC50 lay within 100 to 500 nM.

`COc1cccc(N[C@@H]2CCN(c3ccc4c(c3)CCc3n[nH]cc3-4)C2=O)c1` [Example 9, (R)-1-(4,5-dihydro-2H-benzo[e]indazol-7-yl)-3-((3-methoxyphenyl)amino)pyrrolidin-2-one] displayed a half-inhibitory concentration (IC50) of under 10 nM.

The compound `Cc1cc(F)ccc1CN1CCN(c2ccc3c(n2)OCc2n[nH]cc2-3)C1=O` [Example 28, 1-(2,4-dihydropyrazolo[4′,3′:4,5]pyrano[2,3-b]pyridin-7-yl)-3-(4-fluoro-2-methylbenzyl)imidazolidin-2-one] registered a half-inhibitory concentration (IC50) of 100 to 500 nM.

Regarding `COc1cccc([C@@H](C)N2CCN(c3ccc4c(c3)CCc3n[nH]cc3-4)C2=O)c1` [Example 7, (R)-1-(4,5-dihydro-2H-benzo[e]indazol-7-yl)-3-(1-(3-methoxyphenyl)ethyl)imidazolidin-2-one], the IC50 is under 10 nM.

The compound `Cc1c(F)cccc1CN1CCN(c2ccc3c(n2)OCc2n[nH]cc2-3)C1=O` [Example 22, 1-(2,4-dihydropyrazolo[4′,3′:4,5]pyrano[2,3-b]pyridin-7-yl)-3-(3-fluoro-2-methylbenzyl)imidazolidin-2-one] registered a half-inhibitory concentration (IC50) of 10 to 100 nM.

`COc1cccc(NC2CCN(c3ccc4c(c3)OCc3n[nH]cc3-4)C2=O)c1` (racemic) [Example 13, 1-(2,4-dihydrochromeno[3,4-c]pyrazol-7-yl)-3-((3-methoxyphenyl)amino)pyrrolidin-2-one] yielded a 50% inhibitory concentration (IC50) of under 10 nM.

On to `O=C1N(Cc2cc(F)cc(F)c2)CCN1c1ccc2c(n1)OCc1n[nH]cc1-2` [Example 21, 1-(3,5-difluorobenzyl)-3-(2,4-dihydropyrazolo[4′,3′:4,5]pyrano[2,3-b]pyridin-7-yl)imidazolidin-2-one], for which the half-inhibitory concentration (IC50) lay within 10 to 100 nM.

On to `COc1cccc(N[C@H]2CCN(c3ccc4c(c3)CCc3n[nH]cc3-4)C2=O)c1` [Example 3, (S)-1-(4,5-dihydro-21-benzo[e]indazol-7-yl)-3-((3-methoxyphenyl)amino)pyrolidin-2-one], for which the IC50 was under 10 nM.

`Cc1ccc(F)c(CN2CCN(c3ccc4c(n3)OCc3n[nH]cc3-4)C2=O)c1` [Example 20, 1-(2,4-dihydropyrazolo[4′,3′:4,5]pyrano[2,3-b]pyridin-7-yl)-3-(2-fluoro-5-methylbenzyl)imidazolidin-2-one] displayed a half-maximal inhibitory concentration (IC50) of 10 to 100 nM.

As to `COc1cccc(CN2CCN(c3ccc4c(n3)OCc3n[nH]cc3-4)C2=O)c1` [Example 15, 1-(2,4-dihydropyrazolo[4′,3′:4,5]pyrano[2,3-b]pyridin-7-yl)-3-(3-methoxybenzyl)imidazolidin-2-one], the IC50 was under 10 nM.

As to `COc1cccc(NC2CCN(c3ccc4c(n3)OCc3n[nH]cc3-4)C2=O)c1` (racemic) [Example 11, 1-(2,4-dihydropyrazolo[4′,3′:4,5]pyrano[2,3-b]pyridin-7-yl)-3-((3-methoxyphenyl)amino)pyrrolidin-2-one], the IC50 lay within 10 to 100 nM.

With `Cc1cc(CN2CCN(c3ccc4c(n3)OCc3n[nH]cc3-4)C2=O)ccc1F` [Example 26, 1-(2,4-dihydropyrazolo[4′,3′:4,5]pyrano[2,3-b]pyridin-7-yl)-3-(4-fluoro-3-methylbenzyl)imidazolidin-2-one], the IC50 lay within 100 to 500 nM.

`CC(C)(C)c1cccc(CN2CCN(c3ccc4c(n3)OCc3n[nH]cc3-4)C2=O)c1` [Example 31, 1-(3-(tert-butyl)benzyl)-3-(2,4-dihydropyrazolo[4′,3′:4,5]pyrano[2,3-b]pyridin-7-yl)imidazolidin-2-one] gave a half-inhibitory concentration (IC50) of 500 to 2000 nM.

Compound `O=C1N(c2ccc3c(c2)CCc2n[nH]cc2-3)CCC12Cc1ccccc1N2` (single isomer, unassigned) [Example 6, 1′-(4,5-dihydro-2H-benzo[e]indazol-7-yl)spiro[indoline-2,3′-pyrrolidin]-2′-one] had an IC50 of under 10 nM.

On to `COc1cc(F)cc(NC2CCN(c3ccc4c(n3)OCc3n[nH]cc3-4)C2=O)c1` (racemic) [Example 12, 1-(2,4-dihydropyrazolo[4′,3′:4,5]pyrano[2,3-b]pyridin-7-yl)-3-((3-fluoro-5-methoxyphenyl)amino)pyrrolidin-2-one], for which the IC50 lay in the range of 10 to 100 nM.

The compound `O=C1N(Cc2c(F)cccc2F)CCN1c1ccc2c(n1)OCc1n[nH]cc1-2` [Example 33, 1-(2,6-difluorobenzyl)-3-(2,4-dihydropyrazolo[4′,3′:4,5]pyrano[2,3-b]pyridin-7-yl)imidazolidin-2-one] yielded an IC50 of 500 to 2000 nM.

Take `NC(=O)c1cccc(CN2CCN(c3ccc4c(n3)OCc3n[nH]cc3-4)C2=O)c1` [Example 23, ((3-(2,4-dihydropyrazolo[4′,3′:4,5]pyrano[2,3-b]pyridin-7-yl)-2-oxoimidazolidin-1-yl)methyl)benzamide]: the half-maximal inhibitory concentration (IC50) was 10 to 100 nM.

Compound `COc1cccc(CN2CCN(c3ccc4c(n3)CCc3n[nH]cc3-4)C2=O)c1` [Example 8, 1-(4,5-dihydro-2H-pyrazolo[4,3-f]quinolin-7-yl)-3-(3-methoxybenzyl)imidazolidin-2-one] came in with an IC50 of under 10 nM.

Compound `COc1cc(F)cc(CN2CCN(c3ccc4c(n3)OCc3n[nH]cc3-4)C2=O)c1` [Example 18, 1-(2,4-dihydropyrazolo[4′,3′:4,5]pyrano[2,3-b]pyridin-7-yl)-3-(3-fluoro-5-methoxybenzyl)imidazolidin-2-one] yielded an IC50 of 10 to 100 nM.

`O=C1N(c2ccc3c(c2)CCc2n[nH]cc2-3)CCC12Cc1ccccc1N2` (single isomer, unassigned) [Example 16, 1′-(4,5-dihydro-2H-benzo[e]indazol-7-yl)spiro[indoline-2,3′-pyrrolidin]-2′-one] yielded an IC50 of 10 to 100 nM.

Compound `COc1cccc(CN2CCN(c3ccc4c(c3)OCc3n[nH]cc3-4)C2=O)c1` [Example 14, 1-(2,4-dihydrochromeno[3,4-c]pyrazol-7-yl)-3-(3-methoxybenzyl)imidazolidin-2-one] returned an IC50 of under 10 nM.
